From patent US20220160814A1, “COMPOSITIONS AND METHODS FOR PROTECTING TYPE 2 ALVEOLAR EPITHELIAL CELLS (AEC2)” (Lung Therapeutics, Inc., priority 2019, published 2022)
Where no end group is shown, it is not given here.

System: IPF fibroblasts
Assay type: cell-based
Protocol: FIGS. 1A-B. CSP7 deactivates IPF lung fibroblasts. IPF fibroblasts were treated with control peptide, TGFβ (a positive control to stimulate collagen), or a single dose of CSP7 and assayed 24 h later using ELISA against human collagen 1α1 (FIG. 1A). A cell titer glo assay was used to label live IPF fibroblasts grown on 96 well plates (FIG. 1B).
A cell titer glo assay (Promega, G7570) was used to label live IPF fibroblasts grown on 96 well plates. IPF fibroblasts have a senescent phenotype, and as such they release factors that contribute to aberrant wound healing. Inducing apoptosis in IPF fibroblasts may […]. Luminescence was read in a plate reader. […] Luminescence is proportional to living cell number, i.e., a decrease in luminescence correlates with cell death.

FTTFTVT [CSP7, FTTFTVT]
apoptosis / live cell number (luminescence): did not stimulate apoptosis
